Experiment [1] deals with T1, D(3) dopamine receptor (Rattus norvegicus, UniProt P19020). More on the design: species or system Tissue.
Description: Half-maximal inhibition of [3H]-7-OH-DPAT binding to Dopamine receptor D3 in rat tissue homogenate
For experiment [2], the target named is T2, 5-hydroxytryptamine receptor 2A (Rattus norvegicus, UniProt P14842). Description: biochemical.
Experiment [3] has as its target T3, D(1A) dopamine receptor (Rattus norvegicus, UniProt P18901).
Experiment [4] concerns the target T3, D(1A) dopamine receptor. This is another data set of the same source.
The target of experiment [5] is T4, Adrenergic receptor alpha-1 (Rattus norvegicus, UniProt P15823+P23944+P43140).
T4 sequence (P15823 whole entry): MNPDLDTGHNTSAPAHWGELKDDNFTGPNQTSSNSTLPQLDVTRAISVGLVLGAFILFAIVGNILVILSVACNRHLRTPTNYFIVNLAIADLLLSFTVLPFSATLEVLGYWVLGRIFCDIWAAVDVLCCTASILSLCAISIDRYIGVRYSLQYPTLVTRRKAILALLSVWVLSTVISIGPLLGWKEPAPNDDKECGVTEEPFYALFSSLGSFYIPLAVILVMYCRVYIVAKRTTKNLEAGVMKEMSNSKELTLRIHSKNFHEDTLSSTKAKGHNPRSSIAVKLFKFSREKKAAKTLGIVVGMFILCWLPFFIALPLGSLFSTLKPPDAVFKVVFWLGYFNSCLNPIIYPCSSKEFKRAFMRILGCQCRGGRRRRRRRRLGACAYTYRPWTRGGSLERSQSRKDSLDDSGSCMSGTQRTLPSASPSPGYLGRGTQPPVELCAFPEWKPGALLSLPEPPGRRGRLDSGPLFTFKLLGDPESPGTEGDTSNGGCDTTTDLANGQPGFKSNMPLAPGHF
T4 sequence (P23944 whole entry): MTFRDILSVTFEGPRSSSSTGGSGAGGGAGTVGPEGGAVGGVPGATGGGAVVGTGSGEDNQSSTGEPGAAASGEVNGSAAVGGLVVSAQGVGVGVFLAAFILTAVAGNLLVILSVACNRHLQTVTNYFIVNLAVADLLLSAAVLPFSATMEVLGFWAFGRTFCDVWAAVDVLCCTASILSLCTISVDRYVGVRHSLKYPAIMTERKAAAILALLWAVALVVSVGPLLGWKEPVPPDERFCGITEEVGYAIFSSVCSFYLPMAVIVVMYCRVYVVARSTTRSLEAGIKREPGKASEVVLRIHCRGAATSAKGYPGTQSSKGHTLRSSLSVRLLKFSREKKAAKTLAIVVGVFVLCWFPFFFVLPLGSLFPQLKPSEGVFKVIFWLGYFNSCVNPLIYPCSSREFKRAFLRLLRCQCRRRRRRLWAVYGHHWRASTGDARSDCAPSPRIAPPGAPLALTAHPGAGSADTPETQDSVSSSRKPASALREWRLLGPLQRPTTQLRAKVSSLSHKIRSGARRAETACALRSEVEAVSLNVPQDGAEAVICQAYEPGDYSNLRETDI
T4 sequence (P43140 whole entry): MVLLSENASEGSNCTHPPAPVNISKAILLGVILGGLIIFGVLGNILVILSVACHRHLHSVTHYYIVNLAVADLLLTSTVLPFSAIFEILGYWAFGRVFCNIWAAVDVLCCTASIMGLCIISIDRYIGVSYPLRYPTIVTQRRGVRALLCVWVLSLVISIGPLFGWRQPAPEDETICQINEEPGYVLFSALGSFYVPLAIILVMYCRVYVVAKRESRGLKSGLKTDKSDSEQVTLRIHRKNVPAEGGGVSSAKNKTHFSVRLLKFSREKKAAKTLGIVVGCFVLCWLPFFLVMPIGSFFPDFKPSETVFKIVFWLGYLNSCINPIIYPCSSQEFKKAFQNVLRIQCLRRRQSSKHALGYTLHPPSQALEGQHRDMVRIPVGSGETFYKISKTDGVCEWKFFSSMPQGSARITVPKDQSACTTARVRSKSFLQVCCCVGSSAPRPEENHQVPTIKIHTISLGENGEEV
The class given is tissue-based, Frontal cortex.
Description: Inhibition of [3H]-prazosin binding to Alpha-1 adrenergic receptor in rat frontal cortex homogenate

The species named for experiment [6] is Mus musculus. The experiment in a line: animal or person. The settings on record: sc, dose 1.5 mg/kg, route subcutaneous. The experiment is classed as functional.
The species entered for experiment [7] is Mus musculus. Description: animal or person. The experiment is classed as functional. The conditions noted are these: sc.
Description: Effective dose required to antagonize apomorphine-induced catalepsy in mice after administration of >100 mg/kg dose subcutaneously
For experiment [8], the species on record is Mus musculus. Description: animal or person. The experiment is classed as functional. The settings on record: sc, dose 0.83 mg/kg, route subcutaneous.
For experiment [9], the target named is Histamine H1 receptor (Rattus norvegicus, UniProt P31390). Description: biochemical. The experiment is classed as tissue-based, Frontal cortex.
Chain of Histamine H1 receptor (P31390 whole entry): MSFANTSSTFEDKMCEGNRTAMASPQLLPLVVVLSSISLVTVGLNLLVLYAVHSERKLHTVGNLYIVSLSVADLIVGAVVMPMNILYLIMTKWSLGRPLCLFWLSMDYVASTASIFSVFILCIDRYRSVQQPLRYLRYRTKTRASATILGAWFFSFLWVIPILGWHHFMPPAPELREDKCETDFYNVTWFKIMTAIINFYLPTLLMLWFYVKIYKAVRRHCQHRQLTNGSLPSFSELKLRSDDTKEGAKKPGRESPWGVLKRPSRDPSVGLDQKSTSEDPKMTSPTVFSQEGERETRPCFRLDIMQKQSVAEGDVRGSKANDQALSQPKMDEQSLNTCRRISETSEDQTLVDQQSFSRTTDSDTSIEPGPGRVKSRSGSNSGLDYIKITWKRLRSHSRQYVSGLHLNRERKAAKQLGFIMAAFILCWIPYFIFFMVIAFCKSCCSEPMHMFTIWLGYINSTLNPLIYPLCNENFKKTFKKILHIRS
Description: Half-maximal inhibition of [3H]pyrilamine binding to Histamine H1 receptor in rat frontal cortex homogenate
Experiment [10] has as its target T5, Muscarinic acetylcholine receptor M1 (Rattus norvegicus, UniProt P08482).
T5 sequence (P08482 whole entry): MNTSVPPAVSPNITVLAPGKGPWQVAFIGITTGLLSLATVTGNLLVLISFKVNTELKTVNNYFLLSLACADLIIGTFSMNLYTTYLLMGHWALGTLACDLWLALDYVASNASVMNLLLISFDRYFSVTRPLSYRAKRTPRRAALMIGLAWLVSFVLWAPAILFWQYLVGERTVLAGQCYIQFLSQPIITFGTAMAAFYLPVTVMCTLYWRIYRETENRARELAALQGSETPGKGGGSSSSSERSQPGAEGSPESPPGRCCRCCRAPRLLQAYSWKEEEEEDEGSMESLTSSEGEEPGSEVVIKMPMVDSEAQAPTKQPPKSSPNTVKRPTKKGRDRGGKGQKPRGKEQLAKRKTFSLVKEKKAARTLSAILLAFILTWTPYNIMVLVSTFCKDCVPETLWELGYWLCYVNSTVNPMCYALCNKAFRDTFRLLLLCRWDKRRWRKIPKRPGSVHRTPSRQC
Description: biochemical. The experiment is classed as tissue-based, Frontal cortex.
Description: Half-maximal inhibition of [3H]QNB binding to Muscarinic acetylcholine receptor M1 in rat frontal cortex homogenate

Experiment [11] deals with T2, 5-hydroxytryptamine receptor 2A. The experiment in a line: biochemical. The experiment is classed as tissue-based, Cerebral cortex.
The target of experiment [12] is T1, D(3) dopamine receptor. More on the design: species or system Tissue. This is another data set of the same source.
Experiment [13] deals with T1, D(3) dopamine receptor. Also noted: species or system Tissue. This is another data set of the same source.
Description: Half-maximal inhibition of [3H]7-OH-DPAT binding to Dopamine receptor D3 in rat tissue homogenate

Molecules are shown by their SMILES.

T3 sequence (P18901 whole entry): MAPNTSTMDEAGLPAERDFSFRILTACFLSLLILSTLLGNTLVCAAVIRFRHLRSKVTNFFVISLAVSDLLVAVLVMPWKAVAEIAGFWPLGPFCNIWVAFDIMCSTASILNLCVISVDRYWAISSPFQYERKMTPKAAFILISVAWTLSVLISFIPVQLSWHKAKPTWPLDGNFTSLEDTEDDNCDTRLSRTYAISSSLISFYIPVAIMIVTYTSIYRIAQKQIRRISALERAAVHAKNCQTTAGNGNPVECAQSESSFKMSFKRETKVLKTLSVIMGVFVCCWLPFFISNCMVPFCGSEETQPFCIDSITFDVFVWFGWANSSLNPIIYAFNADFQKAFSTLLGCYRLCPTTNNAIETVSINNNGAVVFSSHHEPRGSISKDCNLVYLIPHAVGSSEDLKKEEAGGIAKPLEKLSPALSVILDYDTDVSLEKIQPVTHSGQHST
T1 sequence (P19020 whole entry): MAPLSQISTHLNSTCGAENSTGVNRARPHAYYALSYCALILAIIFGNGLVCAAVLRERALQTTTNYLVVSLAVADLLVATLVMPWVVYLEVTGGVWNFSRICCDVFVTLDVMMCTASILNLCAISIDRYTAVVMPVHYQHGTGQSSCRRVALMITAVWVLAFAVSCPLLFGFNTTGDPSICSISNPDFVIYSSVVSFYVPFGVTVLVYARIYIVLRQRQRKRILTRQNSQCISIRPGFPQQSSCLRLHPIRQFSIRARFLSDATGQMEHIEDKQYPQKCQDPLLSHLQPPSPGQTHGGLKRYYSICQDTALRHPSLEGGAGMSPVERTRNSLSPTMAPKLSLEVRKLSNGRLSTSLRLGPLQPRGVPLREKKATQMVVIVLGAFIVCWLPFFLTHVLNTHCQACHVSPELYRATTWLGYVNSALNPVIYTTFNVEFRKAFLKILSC
T2 sequence (P14842 whole entry): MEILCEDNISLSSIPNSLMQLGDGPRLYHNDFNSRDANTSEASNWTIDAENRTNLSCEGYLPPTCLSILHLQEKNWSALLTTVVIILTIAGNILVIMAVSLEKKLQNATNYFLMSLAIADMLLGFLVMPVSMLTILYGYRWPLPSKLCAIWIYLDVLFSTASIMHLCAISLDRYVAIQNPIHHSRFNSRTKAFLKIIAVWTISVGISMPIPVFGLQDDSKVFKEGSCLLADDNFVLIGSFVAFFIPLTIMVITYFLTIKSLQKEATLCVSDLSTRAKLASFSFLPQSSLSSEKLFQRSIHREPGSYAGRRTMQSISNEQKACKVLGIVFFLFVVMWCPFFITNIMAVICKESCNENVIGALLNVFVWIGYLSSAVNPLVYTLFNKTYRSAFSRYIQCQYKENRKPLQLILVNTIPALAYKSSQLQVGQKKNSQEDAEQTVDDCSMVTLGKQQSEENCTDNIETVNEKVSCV

For orientation: Ki means a measure of affinity in units of concentration, obtained from inhibition or displacement. For the compound `CCN1CCN(C2Cn3cccc3Sc3ccc(Cl)cc32)CC1` (racemic), the inhibition constant Ki in [1] is 4.5 nM; in [2] it was 5.8 nM; in [3] it was 18.2 nM.

In experiment [4], `CSc1ccc2c(c1)C(N1CCN(C)CC1)Cc1ccccc1S2` (stereo unspecified) [METITEPINE] showed a Ki of 2 nM.

With `CN1CCN([C@H]2Cc3ccccc3Sc3ccc(Cl)cc32)CC1`, the Ki was determined as 0.4 nM in [1] and 1.9 nM in [3].

The term ED50 denotes the dose at which the effect has come halfway, by size or by number of responders. As for `CN1CCN([C@@H]2Cn3cccc3Sc3ccccc32)CC1` (stereo in doubt; (+)-6a), the inhibitory constant (Ki) in experiment [5] amounted to 18.8 nM; in [9] it was 9.5 nM; in [10] it was 2270 nM. In addition, the ED50 at […] came out at 5.2 µmol/kg in experiment [6] and 2.8 µmol/kg in [8]. Moreover, it took a dose of 269 µmol/kg to reach the 50% effect level in [7] (ED50).

In the case of `OCCN1CCN(C2Cn3cccc3Sc3ccc(Cl)cc32)CC1` (racemic), the Ki in experiment [1] is 3.6 nM; in [2], 8.8 nM; in experiment [3], 27 nM.

`OCCN1CCN(C2Cn3cccc3Sc3ccc(Br)cc32)CC1` (racemic): the Ki was determined as 10 nM in experiment [1], 23 nM in experiment [2] and 20 nM in [3].

As for `CCN1CCN(C2Cn3cccc3Sc3ccc(Br)cc32)CC1` (racemic), the values for the Ki in experiment [1], in [2] and in experiment [3] were 7.4 nM, 23 nM and 14 nM, respectively.

For the compound `CN1CCCN(C2Cn3cccc3Sc3ccc(Cl)cc32)CC1` (racemic), the Ki is 58 nM in experiment [1], 16 nM in experiment [2], 53 nM in experiment [3] and 53.7 nM in experiment [11].

In turn, `CN1CCN([C@H]2Cn3cccc3Sc3ccc(F)cc32)CC1` (stereo in doubt; (+)-6b) yielded a Ki in experiment [5] of 12 nM.

`CN1CCN(C2Cn3cccc3Sc3ccc(Br)cc32)CC1` (racemic): the Ki worked out at 12 nM in experiment [2] and 14 nM in experiment [3].

Consider `CCN1CCN(C2Cn3cccc3Sc3ccc(F)cc32)CC1` (racemic), for which the Ki in experiment [12] was 18 nM; in experiment [5] it was 0.4 nM; in experiment [2], 4.3 nM; in [13] it was 18.2 nM; in [3], 31 nM; in [9] it was 4.3 nM. Also, in experiment [10], the Ki was found to be 2340 nM.

Consider `CN1CCN([C@H]2Cn3cccc3Sc3ccc(F)cc32)CC1` (stereo in doubt; (-)-6b), for which the results for the Ki in experiment [5] and in experiment [10] were 4.5 nM and > 10000 nM, respectively.

Turning to `CN1CCN([C@H]2Cn3cccc3Sc3ccc(Cl)cc32)CC1`, the Ki in experiment [1] turned out to be 1.85 nM.

As for `OCCN1CCN(C2Cn3cccc3Sc3ccc(F)cc32)CC1` (racemic), the Ki in experiment [12] is 13 nM; in [5] it was 2.9 nM; in experiment [2], 7.1 nM; in [13], 13.2 nM; in experiment [3] it was 72 nM; in experiment [11], 74.1 nM. Moreover, the Ki in experiment [9] was 7.1 nM; in experiment [10], 6300 nM.
